According to paper PMC6778861, “Radiosynthesis and Preclinical Evaluation of ^11C-VA426, a Cyclooxygenase-2 Selective Ligand” (Contrast Media & Molecular Imaging, 2019):

Experiments:
[1] = parameters: method as in PMID 18598017; settings: previous study; cited from earlier work
[2] = tested on: COX-2; parameters: method as in PMID 18598017; settings: in vitro; cited from earlier work
[3] = Ex vivo biodistribution kinetic profile in healthy mice; parameters: species or system CD-1 mice; settings: i.v.
Method: Male CD-1 mice were injected through the tail vein with 5.3 ± 1.4 MBq of ^11C-VA426 and sacrificed after 10, 30, and 60 minutes (n = 3 per time point) under general anaesthesia with a mixture of 4% isoflurane in air. Blood was collected by retro-orbital sampling immediately before sacrifice. Plasma was separated by centrifugation, and 100 μL of blood and plasma were counted in a γ-counter (LKB Compugamma CS 1282). Different peripheral organs (heart, lung, liver, intestine, stomach, spleen, kidney, testis, and muscle) and brain regions (cortex, striatum, hippocampus, thalamus, hypothalamus, pons, substantia nigra, and cerebellum) were immediately sampled, rinsed with cold saline, and placed in preweighed tubes for counting. Radioactivity concentration was calculated as %ID/g.

[4] = Ex vivo biodistribution kinetic profile in healthy rats; parameters: species or system Sprague Dawley rats
Method: Nine SD rats were injected through the tail vein with 9.25 ± 2.5 MBq of ^11C-VA426 and euthanized under general anaesthesia, with a mixture of 4% isoflurane in air, at different time points (10, 30, and 60 minutes) from injection (n = 3 per time). Blood was collected by retro-orbital sampling immediately before the sacrifice. Plasma was separated by centrifugation, and 100 μL of blood and plasma were counted in a γ-counter (LKB Compugamma CS 1282). Peripheral organs (heart, lung, liver, intestine, kidney, testis, and muscle) and brain regions (frontal, right and left cortex, right and left striatum, hippocampus, thalamus, hypothalamus, pons, and cerebellum) were immediately removed and rinsed in cold saline solution. Each sample was then placed in a test tube and weighed, and the radioactivity was measured using a γ-counter (LKB Compugamma CS 1282). An additional aliquot (0.1 mL) of radioactive solution was diluted to 1 : 10, 1 : 100, and 1 : 1000 and used to calculate the standard curve. Radioactivity concentration was calculated as the percentage of injected dose per gram of tissue (%ID/g).

[5] = In vivo stability / radiometabolite analysis in healthy mice (HPLC); settings: 10 minutes after injection
Method: Mice (n = 3) were injected through the tail vein with 3 ± 0.9 MBq of ^11C-VA426 and sacrificed 10 minutes later, under general anaesthesia. Blood was collected by retro-orbital sampling and processed to obtain plasma, as described above. Radioactive species contained in plasma were extracted by mixing an aliquot (500 μL) of plasma with CH3CN solution (1 : 1 v/v). Acetonitrile extracts were centrifuged and supernatant filtered with a MillexGX® syringe system for HPLC (Gilson Italia Srl, 321 pump, UV/VIS-151) injection. For metabolites analysis in liver, a sample was placed in a tissue homogenizer (Potter-Elvehjem) with 2 mL of saline, mechanically sheared until complete homogenization and subsequently treated as described for plasma. HPLC analyses were performed at room temperature using a C18, 250 × 10 mm, 5 μm column, CH3CN/AcONH4 0.05 M (60/40, v/v) as mobile phase, a flow rate of 4.5 mL/min, and UV = 254 nm. Eluted fractions were collected every 30 seconds, for a total of 14 minutes, and counted with a γ-counter (LKB Compugamma CS 1282).

[6] = target: T1, COX-2 (Mus musculus, UniProt Q05769); assay: Specificity evaluation in peripheral inflammation (i.p. LPS) mouse model; type: in vivo; settings: LPS-treated mice, celecoxib 10 mg/kg i.v., 10 minutes p.i.
T1 construct: from tissue; host or cells: organs of living mice (PET in healthy CD-1 mice)
T1 sequence (Q05769 18-604): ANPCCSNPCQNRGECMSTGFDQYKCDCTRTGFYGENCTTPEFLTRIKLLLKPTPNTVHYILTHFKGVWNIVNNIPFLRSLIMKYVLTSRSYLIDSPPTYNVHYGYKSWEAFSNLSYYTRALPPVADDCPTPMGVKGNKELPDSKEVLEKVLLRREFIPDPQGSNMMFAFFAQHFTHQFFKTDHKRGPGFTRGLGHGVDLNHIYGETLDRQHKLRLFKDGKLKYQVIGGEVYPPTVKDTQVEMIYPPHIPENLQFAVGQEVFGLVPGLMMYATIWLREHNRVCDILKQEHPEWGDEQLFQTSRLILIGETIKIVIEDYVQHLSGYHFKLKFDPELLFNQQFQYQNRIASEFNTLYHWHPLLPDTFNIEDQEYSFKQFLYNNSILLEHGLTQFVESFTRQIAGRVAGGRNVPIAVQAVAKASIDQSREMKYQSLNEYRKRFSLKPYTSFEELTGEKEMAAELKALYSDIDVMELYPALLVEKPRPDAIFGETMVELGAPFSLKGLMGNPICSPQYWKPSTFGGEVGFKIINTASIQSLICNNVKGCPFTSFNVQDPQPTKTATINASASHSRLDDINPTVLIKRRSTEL
Method: Specificity evaluation studies of ^11C-VA426 were performed on a murine model of peripheral inflammation, after COX-2 specific inhibitor administration. Six hours before the study, six mice received intraperitoneal injection of lipopolysaccharide (10 mg/Kg), in order to promote peripheral inflammation response. Three of the LPS-treated mice were injected i.v. with 10 mg/kg of celecoxib, five minutes before the ^11C-VA426 injection, to carry out a competition assay for the COX-2 binding sites. All mice were sacrificed at the time of maximum uptake (10 minutes p.i.), previously assessed in healthy mice, after 3.9 ± 1.1 MBq injection of the radiotracer. Peripheral samples were dissected and counted, as well as for biodistribution studies. Radioactivity concentration in samples was calculated as %ID/g.

[7] = target: T1, COX-2; assay: PET kinetic study in healthy mice; type: in vivo, CD-1 mice
Method: Two CD-1 mice were anaesthetized with a mixture of 4% isoflurane in air for the imaging with the YAP-(S)PET system (ISE Srl). Each mouse was placed in a prone position on the PET scanner bed with the abdomen centred in the field of view (FOV). Five minutes before the intravenous injection of ^11C-VA426, one mouse was pretreated with the COX-2 specific inhibitor celecoxib (10 mg/kg, i.v.) in vehicle (100 μl of DMSO, mouse 1) and the other with vehicle alone (mouse 2). Mouse 1 was then injected intravenously with 1.85 MBq of ^11C-VA426 and mouse 2 with 3.7 MBq, and dynamic PET data were acquired for 30 minutes, according to the following schedule: four scans of 2.5 minutes followed by four of 5 minutes. PET data were acquired in list mode, using the full axial acceptance angle of the scanner (3D mode) and then reconstructed with the expectation maximization (EM) algorithm. All images were calibrated with a dedicated phantom, corrected for the radionuclide half-life decay, and quantified as ID/g.

[8] = target: T2, COX-2 (Rattus norvegicus, UniProt P35355); assay: Specificity (celecoxib competition) study in healthy rats; type: in vivo, Sprague Dawley rats; settings: 30 min p.i.
T2 construct: from tissue; host or cells: peripheral organs and brain regions of Sprague Dawley rats (in vivo / ex vivo biodistribution)
T2 sequence (P35355 18-604): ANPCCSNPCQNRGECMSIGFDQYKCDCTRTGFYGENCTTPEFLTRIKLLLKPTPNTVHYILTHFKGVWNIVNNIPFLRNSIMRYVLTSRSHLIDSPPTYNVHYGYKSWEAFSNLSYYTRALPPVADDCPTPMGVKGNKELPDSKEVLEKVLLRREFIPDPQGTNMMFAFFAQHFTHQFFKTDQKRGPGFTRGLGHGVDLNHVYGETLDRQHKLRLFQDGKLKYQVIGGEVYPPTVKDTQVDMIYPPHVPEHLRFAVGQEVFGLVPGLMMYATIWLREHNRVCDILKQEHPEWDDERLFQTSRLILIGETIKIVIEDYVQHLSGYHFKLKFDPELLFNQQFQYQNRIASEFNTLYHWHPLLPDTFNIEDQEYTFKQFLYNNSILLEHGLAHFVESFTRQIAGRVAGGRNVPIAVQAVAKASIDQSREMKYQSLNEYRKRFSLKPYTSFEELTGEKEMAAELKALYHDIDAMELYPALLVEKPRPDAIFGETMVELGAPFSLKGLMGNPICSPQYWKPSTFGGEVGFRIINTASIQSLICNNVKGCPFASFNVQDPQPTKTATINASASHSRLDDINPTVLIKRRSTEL
Method: In order to evaluate the radiotracer binding specificity to COX-2 in healthy rats, a competition study was performed. Two minutes before the intravenous injection of ^11C-VA426, four animals were pretreated with the COX-2 specific inhibitor celecoxib (Sigma-Aldrich, Italy) (10 mg/kg, i.v.) and four animals with vehicle solution alone (100 μl of DMSO, Sigma-Aldrich). All rats were then injected intravenously with 9.25 ± 2.7 MBq of ^11C-VA426 and sacrificed at the time of maximum uptake (30 minutes p.i.), previously assessed in the kinetic study. Central and peripheral samples were dissected as described above and counted, following the same protocol used for the biodistribution kinetic study. Radioactivity concentration in samples was calculated as %ID/g.

[9] = target: T2, COX-2; assay: Biodistribution kinetic profile in brain inflammation (intrastriatal LPS) rat model; type: in vivo, Sprague Dawley rats; settings: rats
Method: In order to trigger nigrostriatal inflammation, eighteen SD rats were anesthetized (zoletil, 25 mg/kg, i.p.) and stereotaxically injected into the right striatum with 3 μL (3.33 μg/μl) of lipopolysaccharide (LPS, Sigma-Aldrich, Italy) and in the contralateral hemisphere with saline (negative control) at the following coordinates: A = +0.5, L = ±3.0, and V = –5.0 mm. One day after LPS injection, the first experimental group (n = 9) was injected through the tail vein with 9.25 ± 2.2 MBq of ^11C-VA426, and three rats per time point (10, 30, and 60 minutes) were euthanized under general anaesthesia, with a mixture of 4% isoflurane in air. Central and peripheral samples were dissected as described above and counted, following the protocol described for the biodistribution kinetic study. Twelve days after LPS injection, the second group of animals (n = 9) underwent the same protocol. Radioactivity concentration in samples was calculated as %ID/g.

[10] = celecoxib 10 mg/kg i.v. vs vehicle

COCCc1cc(-c2ccc(S(C)(=O)=O)cc2)n(-c2ccc(F)cc2)c1C [VA426, 1-(4-fluorophenyl)-3-(2-methoxyethyl)-2-methyl-5-(4-(methylsulfonyl)phenyl)-1H-pyrrole]
toxic effects [1]: without toxic effects
IC50 [2]: 18 nM
Selectivity Index (IC50 COX-1/IC50 COX-2) [2]: > 5555

Cc1c(CCO[11CH3])cc(-c2ccc(S(C)(=O)=O)cc2)n1-c1ccc(F)cc1 [^11C-VA426]
time of maximum radioactivity concentration in all brain regions [3]: 10 minutes after tracer injection
time of maximum uptake in liver [3]: 10 minutes after injection
maximum radioactivity concentration in pons ([3]; 10 minutes after injection): 2.69 ± 0.81 %ID/g
maximum uptake in liver ([3]; 10 minutes after injection): 7.72 ± 2.52 %ID/g
penetration through the BBB ([4]; brain distribution data): good radioactivity penetration through the BBB
time of highest radioactivity concentration in brain ([4]; i.v.): 10 min p.i.
radioactivity uptake in liver ([4]; i.v., 30 min p.i., n = 3): 0.81 ± 0.28 %ID/g
first radioactive metabolite, fraction of total radioactivity in liver ([5]; healthy mice): 39.8%
parent compound, fraction of total activity in liver ([5]; healthy mice): 34.9%
parent compound, fraction of total activity in plasma ([5]; healthy mice): 47.1%
radioactive metabolite (retention time 3 min), fraction of total radioactivity in plasma ([5]; healthy mice): 45.1%
radioactive metabolite (retention time 5 min), fraction of total radioactivity in plasma ([5]; healthy mice): 6.6%
second radioactive metabolite, fraction of total radioactivity in liver ([5]; healthy mice): 21.6%
third radioactive metabolite (11.5 min of retention time), fraction of total radioactivity in liver ([5]; healthy mice): 3.3%
radioactivity due to radioactive metabolites ([5]; plasma and liver): over 50%
effect of celecoxib on tracer uptake (%ID/g) in all peripheral regions including plasma [6]: dramatic reduction in tracer uptake
PET radioactivity distribution ([7]; healthy mice, 0 to 30 minutes after injection): accumulates rapidly and primarily in the liver and kidneys
effect of celecoxib pretreatment on PET radioactivity distribution ([7]; healthy mouse, celecoxib 10 mg/kg i.v., 10 and 30 minutes): slightly reduced radioactivity distribution in intestine regions
change of uptake in intestine after celecoxib pretreatment [8, 10]: −39%
change of uptake in kidney after celecoxib pretreatment [8, 10]: −36%
change of uptake in liver after celecoxib pretreatment [8, 10]: −65%
difference of uptake between vehicle and celecoxib pretreated rats ([8]; peripheral tissues and central areas): no significant differences
difference of concentration in striatum, lesioned hemisphere vs contralateral PBS-injected control ([9]; one day after LPS, 10, 30 and 60 minutes): no significant differences
tracer uptake in contralateral healthy cortex ([9]; one day after intrastriatal LPS, 60 min p.i.): 0.087 ± 0.012 %ID/g
difference between LPS-treated and healthy contralateral hemisphere, all regions ([9]; twelve days after LPS injection): no differences were found
